The source of these data is patent publication US10428083B2, “Heterocyclylmethyl-thienouracile as antagonists of the adenosine-A2B-receptor” (BAYER PHARMA AKTIENGESELLSCHAFT, priority 2015, dated 2019).

The target of the assay is human adenosine A2b receptor (Homo sapiens (Human), UniProt P29275). Description: Cellular in vitro reporter gene test for A2b receptor activity (CHO-K1, CRE-luciferase, NECA stimulation). The class given is cell-based. To be noted: recombinant CHO-K1 cell line, CRE-luciferase reporter, antagonism of EC50 concentration of NECA; in some cases means of several determinations, rounded to two significant figures; read-out: A2b receptor IC50. A digest of the protocol:
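CHO-K1 cells with CRE-driven luciferase; antagonists co-incubated with NECA at its EC50, determined in a pre-experiment on each test day. Luciferase read by luminescence 3 h after NECA addition.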
In general terms: A reporter such as luciferase makes a cellular process visible.

human adenosine A2b receptor, sequence (P29275 whole entry): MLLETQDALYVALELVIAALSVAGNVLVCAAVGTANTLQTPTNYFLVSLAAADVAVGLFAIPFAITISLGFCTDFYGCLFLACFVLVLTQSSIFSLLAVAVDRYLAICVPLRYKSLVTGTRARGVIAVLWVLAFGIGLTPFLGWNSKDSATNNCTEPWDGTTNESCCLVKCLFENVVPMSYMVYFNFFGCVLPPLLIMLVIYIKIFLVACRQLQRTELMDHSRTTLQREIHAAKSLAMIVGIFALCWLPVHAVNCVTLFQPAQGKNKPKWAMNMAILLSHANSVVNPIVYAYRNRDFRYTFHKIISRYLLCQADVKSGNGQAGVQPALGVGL

Usually IC50 stands for the midpoint of a concentration-inhibition curve. `CCn1c(=O)c2c(C)c(CN3CCNC3=O)sc2n(CC2CCCO2)c1=O` (single isomer, unassigned; enantiomer 2) [Example 70, 3-Ethyl-5-methyl-6-[(2-oxoimidazolidin-1-yl)methyl]-1-(tetrahydrofuran-2-ylmethyl)thieno[2,3-d]pyrimidine-2,4(1H,3H)-dione (Enantiomer 2)]: the IC50 is 0.021 µM.
Next, `CCn1c(=O)c2c(C)c(CN3CCNC3=O)sc2n(CC2CCOC2)c1=O` (single isomer, unassigned; enantiomer 2) [Example 75, 3-Ethyl-5-methyl-6-[(2-oxoimidazolidin-1-yl)methyl]-1-(tetrahydrofuran-3-ylmethyl)thieno[2,3-d]pyrimidine-2,4(1H,3H)-dione (Enantiomer 2)]: 0.04 µM; `COCCn1c(=O)n(CCc2ccccc2)c(=O)c2c(C)c(CN3CCC3=O)sc21` [Example 1, 1-(2-Methoxyethyl)-5-methyl-6-[(2-oxoazetidin-1-yl)methyl]-3-(2-phenylethyl)thieno[2,3-d]pyrimidine-2,4(1H,3H)-dione]: 0.0097 µM.
Next, `CCn1c(=O)c2c(C)c(CN3CCC3=O)sc2n(CCC(F)(F)F)c1=O` [Example 2, 3-Ethyl-5-methyl-6-[(2-oxoazetidin-1-yl)methyl]-1-(3,3,3-trifluoropropyl)thieno[2,3-d]pyrimidine-2,4(1H,3H)-dione]: 0.011 µM.
For `CCn1c(=O)c2c(C)c(CN3CCCC3=O)sc2n(CCC(F)(F)F)c1=O` [Example 4, 3-Ethyl-5-methyl-6-[(2-oxopyrrolidin-1-yl)methyl]-1-(3,3,3-trifluoropropyl)thieno[2,3-d]pyrimidine-2,4(1H,3H)-dione], the IC50 came out at 0.0052 µM.
Under `COCCn1c(=O)n(CCc2ccccc2)c(=O)c2c(C(F)(F)F)c(CN3CCCC3=O)sc21` [Example 5, 1-(2-Methoxyethyl)-6-[(2-oxopyrrolidin-1-yl)methyl]-3-(2-phenylethyl)-5-(trifluoromethyl)thieno[2,3-d]pyrimidine-2,4(1H,3H)-dione] stands 0.0084 µM; under `CCn1c(=O)c2c(C)c(CN3CC[C@@H](O)C3=O)sc2n(CCOC)c1=O` [Example 7, 3-Ethyl-6-{[(3R)-3-hydroxy-2-oxopyrrolidin-1-yl]methyl}-1-(2-methoxyethyl)-5-methylthieno[2,3-d]pyrimidine-2,4(1H,3H)-dione], 0.033 µM; under `CCn1c(=O)c2c(C)c(CN3Cc4ccccc4C3=O)sc2n(CCC(F)(F)F)c1=O` [Example 11, 3-Ethyl-5-methyl-6-[(1-oxo-1,3-dihydro-2H-isoindol-2-yl)methyl]-1-(3,3,3-trifluoropropyl)thieno[2,3-d]pyrimidine-2,4(1H,3H)-dione], 0.019 µM.
Under `CCn1c(=O)c2c(C)c(CN3CCCCC3=O)sc2n(CCC(F)(F)F)c1=O` [Example 12, 3-Ethyl-5-methyl-6-[(2-oxopiperidin-1-yl)methyl]-1-(3,3,3-trifluoropropyl)thieno[2,3-d]pyrimidine-2,4(1H,3H)-dione] stands 0.012 µM; under `COCCn1c(=O)n(CCc2ccccc2)c(=O)c2c(C)c(CN3CCOCC3=O)sc21` [Example 13, 1-(2-Methoxyethyl)-5-methyl-6-[(3-oxomorpholin-4-yl)methyl]-3-(2-phenylethyl)thieno[2,3-d]pyrimidine-2,4(1H,3H)-dione], 0.017 µM; under `CCn1c(=O)c2c(C)c(CN3CCOCC3=O)sc2n(CCC(F)(F)F)c1=O` [Example 14, 3-Ethyl-5-methyl-6-[(3-oxomorpholin-4-yl)methyl]-1-(3,3,3-trifluoropropyl)thieno[2,3-d]pyrimidine-2,4(1H,3H)-dione], 0.019 µM.
Under `COCCn1c(=O)n(CCc2ccccc2)c(=O)c2c(C)c(CN3CCCS3(=O)=O)sc21` [Example 15, 6-[(1,1-Dioxido-1,2-thiazolidin-2-yl)methyl]-1-(2-methoxyethyl)-5-methyl-3-(2-phenylethyl)thieno[2,3-d]pyrimidine-2,4(1H,3H)-dione] stands 0.0031 µM.
With `CCn1c(=O)c2c(C)c(CN3CCCS3(=O)=O)sc2n(CCC(F)(F)F)c1=O` [Example 16, 6-[(1,1-Dioxido-1,2-thiazolidin-2-yl)methyl]-3-ethyl-5-methyl-1-(3,3,3-trifluoropropyl)thieno[2,3-d]pyrimidine-2,4(1H,3H)-dione], the IC50 came out at 0.0027 µM.
Next, `CCn1c(=O)c2c(C)c(CN3CCCS3(=O)=O)sc2n(CCOC)c1=O` [Example 17, 6-[(1,1-Dioxido-1,2-thiazolidin-2-yl)methyl]-3-ethyl-1-(2-methoxyethyl)-5-methylthieno[2,3-d]pyrimidine-2,4(1H,3H)-dione]: 0.016 µM; `COCCn1c(=O)n(CCc2ccccc2)c(=O)c2c(C(F)(F)F)c(CN3CCCS3(=O)=O)sc21` [Example 18, 6-[(1,1-Dioxido-1,2-thiazolidin-2-yl)methyl]-1-(2-methoxyethyl)-3-(2-phenylethyl)-5-(trifluoromethyl)thieno[2,3-d]pyrimidine-2,4(1H,3H)-dione]: 0.014 µM.
Next, `CCn1c(=O)c2c(C(F)(F)F)c(CN3CCCS3(=O)=O)sc2n(CCC(F)(F)F)c1=O` [Example 19, 6-[(1,1-Dioxido-1,2-thiazolidin-2-yl)methyl]-3-ethyl-5-(trifluoromethyl)-1-(3,3,3-trifluoropropyl)thieno[2,3-d]pyrimidine-2,4(1H,3H)-dione]: 0.0056 µM; `CCn1c(=O)c2c(C)c(CN3CCOC3=O)sc2n(CCC(F)(F)F)c1=O` [Example 21, 3-Ethyl-5-methyl-6-[(2-oxo-1,3-oxazolidin-3-yl)methyl]-1-(3,3,3-trifluoropropyl)thieno[2,3-d]pyrimidine-2,4(1H,3H)-dione]: 0.0051 µM.
`COCCn1c(=O)n(CCc2ccccc2)c(=O)c2c(C(F)(F)F)c(CN3CCOC3=O)sc21` [Example 22, 1-(2-Methoxyethyl)-6-[(2-oxo-1,3-oxazolidin-3-yl)methyl]-3-(2-phenylethyl)-5-(trifluoromethyl)thieno[2,3-d]pyrimidine-2,4(1H,3H)-dione]: the IC50 is 0.024 µM.
Under `CCn1c(=O)c2c(C(F)(F)F)c(CN3CCOC3=O)sc2n(CCC(F)(F)F)c1=O` [Example 23, 3-Ethyl-6-[(2-oxo-1,3-oxazolidin-3-yl)methyl]-5-(trifluoromethyl)-1-(3,3,3-trifluoropropyl)thieno[2,3-d]pyrimidine-2,4(1H,3H)-dione] stands 0.016 µM; under `CCn1c(=O)c2c(C)c(CN3C(=O)OCC3(C)C)sc2n(CCC(F)(F)F)c1=O` [Example 24, 6-[(4,4-Dimethyl-2-oxo-1,3-oxazolidin-3-yl)methyl]-3-ethyl-5-methyl-1-(3,3,3-trifluoropropyl)thieno[2,3-d]pyrimidine-2,4(1H,3H)-dione], 0.0088 µM; under `CCn1c(=O)c2c(C)c(CN3CCCOC3=O)sc2n(CCC(F)(F)F)c1=O` [Example 25, 3-Ethyl-5-methyl-6-[(2-oxo-1,3-oxazinan-3-yl)methyl]-1-(3,3,3-trifluoropropyl)thieno[2,3-d]pyrimidine-2,4(1H,3H)-dione], 0.0057 µM.
Take `CCn1c(=O)c2c(C)c(CN3CCN(C(=O)OC(C)(C)C)S3(=O)=O)sc2n(CCC(F)(F)F)c1=O` [Example 26, tert-Butyl 5-{[3-ethyl-5-methyl-2,4-dioxo-1-(3,3,3-trifluoropropyl)-1,2,3,4-tetrahydrothieno[2,3-d]pyrimidin-6-yl]methyl}-1,2,5-thiadiazolidine-2-carboxylate 1,1-dioxide]: the IC50 amounted to 0.011 µM.
With `CCn1c(=O)c2c(C)c(CN3CCNS3(=O)=O)sc2n(CCC(F)(F)F)c1=O` [Example 27, 6-[(1,1-Dioxido-1,2,5-thiadiazolidin-2-yl)methyl]-3-ethyl-5-methyl-1-(3,3,3-trifluoropropyl)thieno[2,3-d]pyrimidine-2,4(1H,3H)-dione], the IC50 turned out to be 0.0027 µM.
Next, `CCn1c(=O)c2c(C)c(CN3CCNC3=S)sc2n(CCC(F)(F)F)c1=O` [Example 28, 3-Ethyl-5-methyl-6-[(2-thioxoimidazolidin-1-yl)methyl]-1-(3,3,3-trifluoropropyl)thieno[2,3-d]pyrimidine-2,4(1H,3H)-dione]: 0.0019 µM; `CCn1c(=O)c2c(C)c(CN3CCNC3=S)sc2n(CCCF)c1=O` [Example 29, 3-Ethyl-1-(3-fluoropropyl)-5-methyl-6-[(2-thioxoimidazolidin-1-yl)methyl]thieno[2,3-d]pyrimidine-2,4(1H,3H)-dione]: 0.0041 µM.
`CCn1c(=O)c2c(C)c(CN3CCNC3=S)sc2n(CCCCF)c1=O` [Example 30, 3-Ethyl-1-(4-fluorobutyl)-5-methyl-6-[(2-thioxoimidazolidin-1-yl)methyl]thieno[2,3-d]pyrimidine-2,4(1H,3H)-dione]: the IC50 worked out at 0.005 µM.
Next, `CCn1c(=O)c2c(C)c(CN3CCNC3=S)sc2n(CCOC)c1=O` [Example 31, 3-Ethyl-1-(2-methoxyethyl)-5-methyl-6-[(2-thioxoimidazolidin-1-yl)methyl]thieno[2,3-d]pyrimidine-2,4(1H,3H)-dione]: 0.0022 µM; `CCOCCn1c(=O)n(CC)c(=O)c2c(C)c(CN3CCNC3=S)sc21` [Example 32, 1-(2-Ethoxyethyl)-3-ethyl-5-methyl-6-[(2-thioxoimidazolidin-1-yl)methyl]thieno[2,3-d]pyrimidine-2,4(1H,3H)-dione]: 0.011 µM; `CCn1c(=O)c2c(C)c(CN3CCNC3=S)sc2n(CCOC(C)C)c1=O` [Example 33, 3-Ethyl-1-(2-isopropoxyethyl)-5-methyl-6-[(2-thioxoimidazolidin-1-yl)methyl]thieno[2,3-d]pyrimidine-2,4(1H,3H)-dione]: 0.012 µM.
Next, `CCn1c(=O)c2c(C)c(CN3CCNC3=S)sc2n(CCC(C)(C)C)c1=O` [Example 37, 1-(3,3-Dimethylbutyl)-3-ethyl-5-methyl-6-[(2-thioxoimidazolidin-1-yl)methyl]thieno[2,3-d]pyrimidine-2,4(1H,3H)-dione]: 0.22 µM.
